# Source: patent US20130315843A1, “COMPOSITION FOR REDUCTION OF TRPA1 AND TRPV1 SENSATIONS” (priority 2012, published 2013)
# Counter-ions that a name gives are not always drawn. Like-named read-outs stand apart in the source and are kept apart here.
# Experiments:
# human TRPA1 [1] = molecular target: T1, human TRPA1 (Homo sapiens, UniProt O75762); assay: FLIPR Ca2+ assay, reduction of L-Menthol activation of TRPA1; conditions: 100 μM antagonist vs 1 mM L-Menthol
# human TRPV1 = human TRPV1 (Homo sapiens, UniProt Q8NER1); assay: FLIPR Ca2+ assay, reduction of L-Menthol activation of TRPV1; conditions: for Average Ca2+ Counts / % Reduction of L-Menthol TRPV1 Activation: antagonist 100 μM against 1 mM L-Menthol; for inhibition at 100 µM: read-out: % Reduction of L-Menthol TRPV1 Activation
# Sequence of human TRPV1 (Q8NER1 whole entry): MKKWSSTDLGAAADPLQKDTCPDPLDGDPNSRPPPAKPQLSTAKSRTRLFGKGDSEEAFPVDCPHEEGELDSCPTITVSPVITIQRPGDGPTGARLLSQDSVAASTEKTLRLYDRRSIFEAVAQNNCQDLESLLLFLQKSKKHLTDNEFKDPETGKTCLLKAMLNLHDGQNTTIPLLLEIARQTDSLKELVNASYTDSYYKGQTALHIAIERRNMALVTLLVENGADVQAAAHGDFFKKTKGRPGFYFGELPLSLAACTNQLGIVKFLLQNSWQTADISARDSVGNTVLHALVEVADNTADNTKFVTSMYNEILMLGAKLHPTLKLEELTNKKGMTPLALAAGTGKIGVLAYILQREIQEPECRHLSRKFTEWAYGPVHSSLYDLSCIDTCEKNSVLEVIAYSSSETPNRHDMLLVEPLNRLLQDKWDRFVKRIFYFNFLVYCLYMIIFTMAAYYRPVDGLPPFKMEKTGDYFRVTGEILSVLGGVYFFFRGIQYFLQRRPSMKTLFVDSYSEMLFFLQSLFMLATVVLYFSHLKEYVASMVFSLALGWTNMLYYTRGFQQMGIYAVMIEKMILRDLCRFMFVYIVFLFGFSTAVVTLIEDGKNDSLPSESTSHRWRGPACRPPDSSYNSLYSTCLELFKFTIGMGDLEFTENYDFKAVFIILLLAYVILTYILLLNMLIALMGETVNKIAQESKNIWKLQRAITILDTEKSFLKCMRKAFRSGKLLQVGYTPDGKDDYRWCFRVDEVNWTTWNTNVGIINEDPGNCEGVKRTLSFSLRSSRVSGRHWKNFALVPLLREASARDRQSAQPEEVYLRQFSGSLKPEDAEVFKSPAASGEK
# human TRPA1 [2] = molecular target: T1, human TRPA1; assay: FLIPR Ca2+ assay, reduction of hydrogen peroxide activation of TRPA1; type: cell-based; design: expressed in transfected cells; conditions: for inhibition at 100 µM: read-out: % Reduction of Hydrogen Peroxide TRPA1 Activation
# Procedure: After centrifugation, a pellet of cells was formed in the bottom of the tube separating them from the supernatant solution.
# The pelleted cells were re-suspended in 10 ml assay buffer and 90 μl aliquots (˜50,000 cells) per well delivered to a 96-well assay plate containing 10 μl of test compounds ([…]) or buffer control and incubated at room temperature for 30 minutes.
# [3] = compound 100 μM against 200 μM hydrogen peroxide, Sets 1-4
# T1 sequence (O75762 whole entry): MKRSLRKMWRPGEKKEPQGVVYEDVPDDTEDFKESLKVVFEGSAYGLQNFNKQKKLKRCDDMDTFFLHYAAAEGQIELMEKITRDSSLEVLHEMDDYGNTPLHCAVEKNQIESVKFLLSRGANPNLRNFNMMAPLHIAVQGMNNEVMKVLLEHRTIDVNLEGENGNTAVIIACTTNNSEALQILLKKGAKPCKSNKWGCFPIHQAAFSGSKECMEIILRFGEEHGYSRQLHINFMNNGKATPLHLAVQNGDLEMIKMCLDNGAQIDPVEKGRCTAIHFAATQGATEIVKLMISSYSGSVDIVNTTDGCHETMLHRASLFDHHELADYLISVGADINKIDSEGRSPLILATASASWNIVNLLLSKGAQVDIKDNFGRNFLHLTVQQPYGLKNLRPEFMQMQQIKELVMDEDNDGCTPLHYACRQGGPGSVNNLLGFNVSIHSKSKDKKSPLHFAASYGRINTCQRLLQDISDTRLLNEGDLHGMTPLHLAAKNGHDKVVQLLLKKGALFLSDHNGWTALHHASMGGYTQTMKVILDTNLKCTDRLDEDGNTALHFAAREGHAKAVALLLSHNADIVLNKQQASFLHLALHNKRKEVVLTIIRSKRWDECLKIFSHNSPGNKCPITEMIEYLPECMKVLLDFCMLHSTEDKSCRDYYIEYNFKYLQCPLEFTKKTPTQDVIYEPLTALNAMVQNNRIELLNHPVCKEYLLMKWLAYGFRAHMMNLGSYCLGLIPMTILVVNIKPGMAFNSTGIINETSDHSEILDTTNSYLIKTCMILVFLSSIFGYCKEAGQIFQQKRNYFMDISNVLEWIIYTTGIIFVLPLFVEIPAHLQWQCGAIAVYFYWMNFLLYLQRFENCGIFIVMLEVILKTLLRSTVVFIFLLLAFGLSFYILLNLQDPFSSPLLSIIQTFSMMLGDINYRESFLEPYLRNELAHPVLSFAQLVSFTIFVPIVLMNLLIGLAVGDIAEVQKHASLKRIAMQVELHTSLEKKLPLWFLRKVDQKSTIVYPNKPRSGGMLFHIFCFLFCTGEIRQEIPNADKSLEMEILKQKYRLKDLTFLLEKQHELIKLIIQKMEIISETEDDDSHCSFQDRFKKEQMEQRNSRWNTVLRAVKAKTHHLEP
Compound,Block of L-Menthol activation of TRPA1 (human TRPA1 [1]),Average Ca2+ Counts (human TRPV1) [Counts],inhibition at 100 µM (human TRPV1) [%],further results
CC(=O)OCC1=CCC2C[C@@H]1C2(C)C,BLOCK ONLY MENTHOL/TRPA1,,,
COC(C=C(C)CCC=C(C)C)OC (mixture of isomers),BLOCK ONLY MENTHOL/TRPA1,,,
CC(C)=CCCC(C)CCO (racemic) [(+−)-beta; -Citronellol],BLOCK ONLY MENTHOL/TRPA1,,,
"COc1ccc(OC)cc1 [1,4-dimethoxybenzene]",BLOCK ONLY MENTHOL/TRPA1,3633.0,43.2,
Cc1ccc(C(C)C)cc1 [1-isopropyl-4-methylbenzene],BLOCK ONLY MENTHOL/TRPA1,1112.7,40.5,
CCCCCCCCO [1-octanol],BLOCK ONLY MENTHOL/TRPA1,1442.3,25.2,
CCC(O)c1ccccc1 (stereo not shown) [1-phenyl 1-propanol],BLOCK ONLY MENTHOL/TRPA1,,,
"Cc1nc(C)c(C)nc1C [2,3,5,6-tetramethylpyrazine]",BLOCK ONLY MENTHOL/TRPA1,972.0,47,
"Cc1ccc(C)c(O)c1C [2,3,6-trimethylphenol]",BLOCK ONLY MENTHOL/TRPA1,1339.3,30,
"Cc1cnc(C)cn1 [2,5-dimethylpyrazine]",BLOCK ONLY MENTHOL/TRPA1,1040.0,43.8,
CCCOC(C)OCCc1ccccc1 (stereo not shown) [2-(1-propoxyethoxy)ethylbenzene],BLOCK ONLY MENTHOL/TRPA1,1480.7,23.4,
C=CC1(C)CCC(C(=C)C)O1 (stereo not shown) [2-Isopropenyl-5-Methyl-5-Vinyltetrahydrofuran],BLOCK ONLY MENTHOL/TRPA1,,,
CC(=O)c1nccs1 [2-acetylthiazole],BLOCK ONLY MENTHOL/TRPA1,3569.5,23.1,
O=C(Nc1ccccc1C(=O)O)c1ccccc1 [2-benzoylamino-benzoic acid],BLOCK ONLY MENTHOL/TRPA1,1207.7,36.1,
CCc1nccnc1OC [2-ethyl-3-methoxypyrazine],BLOCK ONLY MENTHOL/TRPA1,1432.7,25.7,
COc1ccccc1C=O [2-methoxybenzaldehyde],BLOCK ONLY MENTHOL/TRPA1,1050.3,43.3,
COc1ccccc1C(=O)O [2-methoxybenzoic acid],BLOCK ONLY MENTHOL/TRPA1,1441.7,25.2,
CC1OCCC1=O (stereo not shown) [2-methyltetrahydro-3-furanone],BLOCK ONLY MENTHOL/TRPA1,993.7,46,
SCCc1cnccn1 [2-pyrazinylethanethiol],,992.0,46,Average Ca++ Counts (human TRPA1 [2]; [3]): 1987.5 Counts; inhibition at 100 µM (human TRPA1 [2]; [3]): 81.2%
CCC(C)C1CCCCC1=O (stereo not shown) [2-sec-butylcyclohexanone],BLOCK ONLY MENTHOL/TRPA1,,,
CC(=O)c1ccccc1O [2′-hydroxyacetophenone],BLOCK ONLY MENTHOL/TRPA1,1083.3,41.8,
"O=C(O)c1ccc(O)c(O)c1 [3,4-dihydroxybenzoic acid]",BLOCK ONLY MENTHOL/TRPA1,1539.7,20.7,
CC(=O)OCCC(C)S (stereo not shown) [3-mercaptobutyl acetate],BLOCK ONLY MENTHOL/TRPA1,1061.3,42.8,
CSC(C)C(C)=O (stereo not shown) [3-methylthio-2-butanone],BLOCK ONLY MENTHOL/TRPA1,1554.0,20,
O=C(C=Cc1ccccc1)OCC=Cc1ccccc1 [3-phenyl-2-propen-1-yl 3-phenylacrylate],BLOCK ONLY MENTHOL/TRPA1,3377.0,47.2,
COc1ccc(COC=O)cc1 [4-methoxybenzyl formate],BLOCK ONLY MENTHOL/TRPA1,1399.0,27.2,
CC(C)CC(=O)Cc1ccccc1 [4-methyl-1-phenyl-2-pentanone],BLOCK ONLY MENTHOL/TRPA1,2707.0,32.9,
"COc1cc(C)cc(OC)c1O [4-methyl-2,6-dimethoxyphenol]",BLOCK ONLY MENTHOL/TRPA1,1292.3,32.1,

Compound,Block of L-Menthol activation of TRPA1 (human TRPA1 [1]),Average Ca2+ Counts (human TRPV1) [Counts],inhibition at 100 µM (human TRPV1) [%],further results
C=Cc1scnc1C [4-methyl-5-vinylthiazole],BLOCK ONLY MENTHOL/TRPA1,1227.7,35.1,
"CC(=O)C(=O)CC(C)C [5-methyl-2,3-hexanedione]",BLOCK ONLY MENTHOL/TRPA1,2968.5,26.4,
"CC(=O)OCC1=CCC2CC1C2(C)C (stereo not shown) [6,6-dimethylbicyclo[3.1.1]hept-2-ene-2-methyl acetate]",,1448.3,,% Reduction of L-Menthol TRPV1 Activation (human TRPV1): 24.9%
CC1(C)C2CC[C@@]1(C)C(=O)C2 [(1r)-(+)-camphor],BLOCK ONLY MENTHOL/TRPA1,2807.0,30.5,
O=C1O[C@H]([C@@H](O)CO)C([O-])=C1O.[Na+] [(+)-Sodium L-ascorbate],BLOCK ONLY MENTHOL/TRPA1,,,
O=C1O[C@H]([C@@H](O)CO)C([O-])=C1O.[Na+] [(+)-sodium 1-ascorbate],,2961.0,,% Reduction of L-Menthol TRPV1 Activation (human TRPV1): 26.6%
C[C@@H](CO)c1ccccc1 [(r)-(+)-2-phenyl-1-propanol],,1414.0,26.5,
C/C=C(/C)C(=O)OCC(C)C [Angelic Acid Isobutyl Ester],BLOCK ONLY MENTHOL/TRPA1,,,
CC(=O)CCC=C(C)CCC=C(C)CCC=C(C)C [Farnesylacetone],BLOCK ONLY MENTHOL/TRPA1,,,
CCCCCCCC/C=C\CCCCCCCC(=O)O [Oleic acid],BLOCK ONLY MENTHOL/TRPA1,,,
CCCCCCCCCCCCC(=O)O [Tridecanoic acid],BLOCK ONLY MENTHOL/TRPA1,,,
C=CCOC(=O)CCCCCCC [allyl caprylate],BLOCK ONLY MENTHOL/TRPA1,2572.0,44.6,
O=COCc1ccccc1 [benzyl formate],BLOCK ONLY MENTHOL/TRPA1,2923.5,27.6,
CCCCOC(=O)C(C)CC (stereo not shown) [butyl 2-methylbutyrate],,1233.7,34.9,
C/C=C/C(=O)OCC/C=C\CC [crotonic acid cis-3-hexen-1-yl ester],,1150.0,38.7,
CCOC(=O)C1OC1(C)c1ccccc1 (stereo not shown) [empg],,1164.0,,% Reduction of L-Menthol TRPV1 Activation (human TRPV1): 38.1%
OCc1ccco1 [furfuryl alcohol],BLOCK BOTH MENTHOL AND H2O2 ON TRPA1,,,Average Ca++ Counts (human TRPA1 [2]): 5585.5 Counts; Block of hydrogen peroxide activation of TRPA1 (human TRPA1 [2]): BLOCK BOTH MENTHOL AND H2O2 ON TRPA1; inhibition at 100 µM (human TRPA1 [2]): 47.3%
CCC1CCC(=O)O1 (stereo not shown) [gamma-caprolactone],,1084.3,41.8,
CCCCCCCCCCCC(=O)OC [methyl laurate],,1199.7,36.4,
CCCCC/C=C/C(=O)OC [methyl trans-2-octenoate],,1538.7,20.7,
C/C=C(/C)C1CCC(C)(C)O1 (stereo not shown) [ocimene quintoxide],,1236.3,,% Reduction of L-Menthol TRPV1 Activation (human TRPV1): 34.7%
"CCC(O)c1ccccc1 (stereo not shown) [phenylpropanol (1-phenyl 1-propanol), 1-phenyl 1-propanol]",,1218.3,35.6,
Cc1ccc(C(C)C)c(O)c1 [thymol],,1331.3,30.3,
"CCCCC/C=C/C=C/C=O [trans,trans-2,4-Decadienal]",BLOCK ONLY MENTHOL/TRPA1,,,
CCC/C=C/C(OCC)OCC [trans-2-hexen-1-al diethyl acetal],,1169.0,37.9,
O=C/C=C/c1ccccc1 [trans-Cinnamaldehyde],BLOCK ONLY MENTHOL/TRPA1,,,
d-(−)-lactic acid,,1093.7,,% Reduction of L-Menthol TRPV1 Activation (human TRPV1): 41.3%
